30 compounds from US8937077B2, “Bicyclic diamines as janus kinase inhibitors” (Merck Sharp & Dohme Corp., priority 2010, dated 2015) can be followed below.

pIC50: −log10 of the molar value.

T1 sequence (P23458 875-1153 limits assumed): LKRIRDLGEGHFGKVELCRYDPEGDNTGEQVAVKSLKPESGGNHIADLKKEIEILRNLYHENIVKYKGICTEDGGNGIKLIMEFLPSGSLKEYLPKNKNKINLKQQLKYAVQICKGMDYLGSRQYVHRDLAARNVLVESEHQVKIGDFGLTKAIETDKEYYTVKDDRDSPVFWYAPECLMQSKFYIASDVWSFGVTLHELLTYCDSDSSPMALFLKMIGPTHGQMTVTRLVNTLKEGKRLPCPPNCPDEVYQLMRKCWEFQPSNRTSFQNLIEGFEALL

The first test concerns the target T1, Jak1 (Homo sapiens, UniProt P23458).
T1 construct: using a recombinant purified GST-tagged catalytic domain for each enzyme; GST; purchased Invitrogen M4290
Nature of the test: Jak Biochemical HTRF Assay (Jak1). As to conditions: IC50 class, recombinant GST-tagged catalytic domain, read-out: Jak1 activity. The method in brief: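 Recombinant GST-tagged Jak1 catalytic domain was preincubated with compound and peptide substrate for 30 min at room temperature, and the reaction was then started with ATP and run 120 min. Buffer contained 2 mM DTT and 0.05% BSA. Read-out was HTRF (665/615 nm) with Eu-pY20 antibody and streptavidin-Dylight, and IC50 values came from 4-parameter fits of percent inhibition.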
For orientation: Time-resolved FRET reads energy transfer from a long-lived donor to a nearby acceptor.
For the compound `O=C(c1ccccc1-c1ccccc1)N1CCC[C@@H]2[C@H]1CCN2c1ncnc2[nH]ccc12` [Example 29-23, 4-[(3aR,7aR)-4-(biphenyl-2-ylcarbonyl)octahydro-1H-pyrrolo[3,2-b]pyridin-1-yl]-7H-pyrrolo[2,3-d]pyrimidine], the pIC50 is 6.00 to 7.00.
With `O=C(C(c1ccccc1)c1ccccc1)N1CCC[C@@H]2[C@H]1CCN2c1ncnc2[nH]ccc12` [Example 29-24, 4-[(3aR,7aR)-4-(diphenylacetyl)octahydro-1H-pyrrolo[3,2-b]pyridin-1-yl]-7H-pyrrolo[2,3-d]pyrimidine], the pIC50 is 6.00 to 7.00.
Consider `O=C(c1cn2ccccc2n1)N1CCC[C@@H]2[C@H]1CCN2c1ncnc2[nH]ccc12` [Example 29-25, 4-[(3aR,7aR)-4-(imidazo[1,2-a]pyridin-2-ylcarbonyl)octahydro-1H-pyrrolo[3,2-b]pyridin-1-yl]-7H-pyrrolo[2,3-d]pyrimidine], for which the pIC50 is 6.00 to 7.00.
In the case of `O=C(c1ccc2ccccc2c1)N1CCC[C@@H]2[C@H]1CCN2c1ncnc2[nH]ccc12` [Example 29-26, 4-[(3aR,7aR)-4-(naphthalen-2-ylcarbonyl)octahydro-1H-pyrrolo[3,2-b]pyridin-1-yl]-7H-pyrrolo[2,3-d]pyrimidine], the pIC50 was 7.00 to 8.00.
For `O=C(c1cn2cccnc2n1)N1CCC[C@@H]2[C@H]1CCN2c1ncnc2[nH]ccc12` [Example 29-27, 4-[(3aR,7aR)-4-(imidazo[1,2-a]pyrimidin-2-ylcarbonyl)octahydro-1H-pyrrolo[3,2-b]pyridin-1-yl]-7H-pyrrolo[2,3-d]pyrimidine], the pIC50 was 7.00 to 8.00.
`O=C(c1cccs1)N1CCC[C@@H]2[C@H]1CCN2c1ncnc2[nH]ccc12` [Example 29-28, 4-[(3aR,7aR)-4-(thiophen-2-ylcarbonyl)octahydro-1H-pyrrolo[3,2-b]pyridin-1-yl]-7H-pyrrolo[2,3-d]pyrimidine]: the pIC50 is 8.00 to 9.00.
As for `N#Cc1ccc(C(=O)N2CCC[C@@H]3[C@H]2CCN3c2ncnc3[nH]ccc23)cc1` [Example 29-29, 4-{[(3aR,7aR)-1-(7H-pyrrolo[2,3-d]pyrimidin-4-yl)octahydro-4H-pyrrolo[3,2-b]pyridin-4-yl]carbonyl}benzonitrile], the pIC50 is 7.00 to 8.00.
Take `CCC[C@H]1C[C@H]1C(=O)N1CCC[C@@H]2[C@H]1CCN2c1ncnc2[nH]ccc12` [Example 29-30, 4-[(3aR,7aR)-4-{[(1R,2S)-2-propylcyclopropyl]carbonyl}octahydro-1H-pyrrolo[3,2-b]pyridin-1-yl]-7H-pyrrolo[2,3-d]pyrimidine]: the pIC50 is 7.00 to 8.00.
For the compound `N#Cc1cccc(C(=O)N2CCC[C@@H]3[C@H]2CCN3c2ncnc3[nH]ccc23)c1` [Example 29-31, 3-{[(3aR,7aR)-1-(7H-pyrrolo[2,3-d]pyrimidin-4-yl)octahydro-4H-pyrrolo[3,2-b]pyridin-4-yl]carbonyl}benzonitrile], the pIC50 was 7.00 to 8.00.
As to `O=C(c1ccsc1)N1CCC[C@@H]2[C@H]1CCN2c1ncnc2[nH]ccc12` [Example 29-32, 4-[(3aR,7aR)-4-(thiophen-3-ylcarbonyl)octahydro-1H-pyrrolo[3,2-b]pyridin-1-yl]-7H-pyrrolo[2,3-d]pyrimidine], the pIC50 is 7.00 to 8.00.
As for `N#Cc1ccccc1C(=O)N1CCC[C@@H]2[C@H]1CCN2c1ncnc2[nH]ccc12` [Example 29-33, 2-{[(3aR,7aR)-1-(7H-pyrrolo[2,3-d]pyrimidin-4-yl)octahydro-4H-pyrrolo[3,2-b]pyridin-4-yl]carbonyl}benzonitrile], the pIC50 is 7.00 to 8.00.
As to `O=C(c1ccccc1)N1CCC[C@@H]2[C@H]1CCN2c1ncnc2[nH]ccc12` [Example 29-34, 4-[(3aR,7aR)-4-(phenylcarbonyl)octahydro-1H-pyrrolo[3,2-b]pryidin-1-yl]-7H-pyrrolo[2,3-d]pyrimidine], the pIC50 was 7.00 to 8.00.
Still for that read-out and setting: in the case of `CN(C)C(=O)N1CCC(C(=O)N2CCC[C@@H]3[C@H]2CCN3c2ncnc3[nH]ccc23)CC1` [Example 29-35, N,N-dimethyl-4-{[(3aR,7aR)-1-(7H-pyrrolo[2,3-d]pyrimidin-4-yl)octahydro-4H-pyrrolo[3,2-b]pyridin-4-yl]carbonyl}piperidine-1-carboxamide] it was 7.00 to 8.00.
On the same count and under the same terms, in the case of `O=C(CN1CCc2ccccc2C1)N1CCC[C@@H]2[C@H]1CCN2c1ncnc2[nH]ccc12` [Example 29-36, 2-{2-oxo-2-[(3aR,7aR)-1-(7H-pyrrolo[2,3-d]pyrimidin-4-yl)octahydro-4H-pyrrolo[3,2-b]pyridin-4-yl]ethyl}-1,2,3,4-tetrahydroisoquinoline] it was 7.00 to 8.00; in that of `O=C(c1cccc2cnccc12)N1CCC[C@@H]2[C@H]1CCN2c1ncnc2[nH]ccc12` [Example 29-37, 5-{[(3aR,7aR)-1-(7H-pyrrolo[2,3-d]pyrimidin-4-yl)octahydro-4H-pyrrolo[3,2-b]pyridin-4-yl]carbonyl}isoquinoline], 7.00 to 8.00.
On to `O=C(C1COc2ccccc2O1)N1CCC[C@@H]2[C@H]1CCN2c1ncnc2[nH]ccc12` (stereo partly drawn) [Example 29-38, 4-[(3aR,7aR)-4-(2,3-dihydro-1,4-benzodioxin-2-ylcarbonyl)octahydro-1H-pyrrolo[3,2-b]pyridin-1-yl]-7H-pyrrolo[2,3-d]pyrimidine], for which the pIC50 was 7.00 to 8.00.
On the same count and under the same terms, in the case of `O=C(c1cccc2ccncc12)N1CCC[C@@H]2[C@H]1CCN2c1ncnc2[nH]ccc12` [Example 29-39, 8-{[(3aR,7aR)-1-(7H-pyrrolo[2,3-d]pyrimidin-4-yl)octahydro-4H-pyrrolo[3,2-b]pyridin-4-yl]carbonyl}isoquinoline] it was 7.00 to 8.00; in that of `O=C(c1cncc2ccccc12)N1CCC[C@@H]2[C@H]1CCN2c1ncnc2[nH]ccc12` [Example 29-40, 4-{[(3aR,7aR)-1-(7H-pyrrolo[2,3-d]pyrimidin-4-yl)octahydro-4H-pyrrolo[3,2-b]pyridin-4-yl]carbonyl}isoquinoline], 7.00 to 8.00.
On the same count and under the same terms, in the case of `O=C(c1ncoc1C1CC1)N1CCC[C@@H]2[C@H]1CCN2c1ncnc2[nH]ccc12` [Example 29-41, 4-{(3aR,7aR)-4-[(5-cyclopropyl-1,3-oxazol-4-yl)carbonyl]octahydro-1H-pyrrolo[3,2-b]pyridin-1-yl}-7H-pyrrolo[2,3-d]pyrimidine] it was 7.00 to 8.00.
Turning to `CC(Cc1ccccc1)C(=O)N1CCC[C@@H]2[C@H]1CCN2c1ncnc2[nH]ccc12` (stereo partly drawn) [Example 29-42, 4-[(3aR,7aR)-4-(2-methyl-3-phenylpropanoyl)octahydro-1H-pyrrolo[3,2-b]pyridin-1-yl]-7H-pyrrolo[2,3-d]pyrimidine], the pIC50 was 7.00 to 8.00.
Regarding `O=C(c1cnc2ccccc2c1)N1CCC[C@@H]2[C@H]1CCN2c1ncnc2[nH]ccc12` [Example 29-44, 3-{[(3aR,7aR)-1-(7H-pyrrolo[2,3-d]pyrimidin-4-yl)octahydro-4H-pyrrolo[3,2-b]pyridin-4-yl]carbonyl}quinoline], the pIC50 is 7.00 to 8.00.
With `O=C(c1c[nH]c2ccncc12)N1CCC[C@@H]2[C@H]1CCN2c1ncnc2[nH]ccc12` [Example 29-45, 4-[(3aR,7aR)-4-(1H-pyrrolo[3,2-c]pyridin-3-ylcarbonyl)octahydro-1H-pyrrolo[3,2-b]pyridin-1-yl]-7H-pyrrolo[2,3-d]pyrimidine], the pIC50 is 7.00 to 8.00.
In the case of `O=C(C(O)c1ccccc1)N1CCC[C@@H]2[C@H]1CCN2c1ncnc2[nH]ccc12` (stereo partly drawn) [Example 29-46, 2-oxo-1-phenyl-2-[(3aR,7aR)-1-(7H-pyrrolo[2,3-d]pyrimidin-4-yl)octahydro-4H-pyrrolo[3,2-b]pyridin-4-yl]ethanol], the pIC50 was 7.00 to 8.00.
`O=C(c1nccc2ccccc12)N1CCC[C@@H]2[C@H]1CCN2c1ncnc2[nH]ccc12` [Example 29-47, 1-{[(3aR,7aR)-1-(7H-pyrrolo[2,3-d]pyrimidin-4-yl)octahydro-4H-pyrrolo[3,2-b]pyridin-4-yl]carbonyl}isoquinoline]: the pIC50 was 7.00 to 8.00.
As to `O=C(c1cc2ccsc2[nH]1)N1CCC[C@@H]2[C@H]1CCN2c1ncnc2[nH]ccc12` [Example 29-48, 4-[(3aR,7aR)-4-(6H-thieno[2,3-b]pyrrol-5-ylcarbonyl)octahydro-1H-pyrrolo[3,2-b]pryidin-1-yl]7H-pyrrolo[2,3-d]pyrimidine], the pIC50 is 6.00 to 7.00.
For the compound `O=C(c1cn2cccnc2n1)N1CCC[C@@H]2[C@H]1CCN2c1ncnc2[nH]ccc12` [Example 29-49, 4-[(3aR,7aR)-4-(imidazo[1,2-a]pyrimidin-2-ylcarbonyl)octahydro-1H-pyrrolo[3,2-b]pyridin-1-yl]-7H-pyrrolo[2,3-d]pyrimidine], the pIC50 was 6.00 to 7.00.
Still for that read-out and setting: then `Cn1ccc2cc(C(=O)N3CCC[C@@H]4[C@H]3CCN4c3ncnc4[nH]ccc34)cnc21` [Example 29-50, 4-{(3aR,7aR)-4-[(1-methyl-1H-pyrrolo[2,3-b]pyridin-5-yl)carbonyl]octahydro-1H-pyrrolo[3,2-b]pyridin-1-yl}-7H-pyrrolo[2,3-d]pyrimidine], with 6.00 to 7.00.
As for `O=C(c1cccc2cccnc12)N1CCC[C@@H]2[C@H]1CCN2c1ncnc2[nH]ccc12` [Example 29-51, 8-{[(3aR,7aR)-1-(7H-pyrrolo[2,3-d]pyrimidin-4-yl)octahydro-4H-pyrrolo[3,2-b]pyridin-4-yl]carbonyl}quinoline], the pIC50 is 6.00 to 7.00.
With `O=C(c1cc2ccccn2c1)N1CCC[C@@H]2[C@H]1CCN2c1ncnc2[nH]ccc12` [Example 29-52, 4-[(3aR,7aR)-4-(indolizin-2-ylcarbonyl)octahydro-1H-pyrrolo[3,2-b]pyridin-1-yl]-7H-pyrrolo[2,3-d]pyrimidine], the pIC50 was 6.00 to 7.00.
Same read-out and setting: in the case of `O=C(Cn1cnc2ccccc21)N1CCC[C@@H]2[C@H]1CCN2c1ncnc2[nH]ccc12` [Example 29-53, 4-[(3aR,7aR)-4-(1H-benzimidazol-1-ylacetyl)octahydro-1H-pyrrolo[3,2-b]pyridin-1-yl]-7H-pyrrolo[2,3-d]pyrimidine] it was 6.00 to 7.00.

The same test, now with this note: recombinant GST-tagged catalytic domain, 31.8 μM ATP, read-out: Representative IC50 values.
For the compound `O=C(c1cccs1)N1CCC[C@@H]2[C@H]1CCN2c1ncnc2[nH]ccc12` [Example 29-28, 4-[(3aR,7aR)-4-(thiophen-2-ylcarbonyl)octahydro-1H-pyrrolo[3,2-b]pyridin-1-yl]-7H-pyrrolo[2,3-d]pyrimidine], the pIC50 was 8.30.
Regarding `O=C(CN1CCc2ccccc2C1)N1CCC[C@@H]2[C@H]1CCN2c1ncnc2[nH]ccc12` [Example 29-36, 2-{2-oxo-2-[(3aR,7aR)-1-(7H-pyrrolo[2,3-d]pyrimidin-4-yl)octahydro-4H-pyrrolo[3,2-b]pyridin-4-yl]ethyl}-1,2,3,4-tetrahydroisoquinoline], the pIC50 is 7.52.
With `O=C(c1cn2cccnc2n1)N1CCC[C@@H]2[C@H]1CCN2c1ncnc2[nH]ccc12` [Example 29-49, 4-[(3aR,7aR)-4-(imidazo[1,2-a]pyrimidin-2-ylcarbonyl)octahydro-1H-pyrrolo[3,2-b]pyridin-1-yl]-7H-pyrrolo[2,3-d]pyrimidine], the pIC50 is 6.88.
